Experimental data taken from patent US20150190369A1, “QUERCETIN-3-GLUCOSIDE AND USES THEREOF” (priority 2012, published 2015).
“Also recorded” adds a separate entry of the source.

Tests used:
[1] = test system: LDLR mRNA; assay: Quantitative RT-PCR for LDLR mRNA in Huh7 cells; type: cell-based, human; conditions: Huh7, 24 h, 10% LPDS, 0 to 10 μM Q3G; maximum at 2 μM, relative to no Q3G
Description: At passage, Huh7 cells were routinely seeded at sub-confluence (˜10^6 cells/10-cm dish) in Dulbecco's modified Eagle's medium (DMEM) containing 10% fetal bovine serum (FBS) or LPDS (for experiments) and 50 μg/ml gentamycin. They were incubated overnight at 37° C., in a humidified 5% CO2-95% air atmosphere. Cells were treated or not with Q3G at defined concentrations and for defined lengths of time. Media were collected and centrifuged at 200 g for 5 min to sediment suspended cells; supernatants were collected and supplemented with 0.33 volumes of a 3×-concentrated PIC. Cell monolayers were rinsed with ice-cold phosphate-buffered saline (PBS); they were overlaid with […] the RIPA lysis buffer (50 mM Tris-HCl, pH 8, 150 mM NaCl, 1% NP-40, 0.5% Na-deoxycholate and 0.1% SDS) supplemented with 1× PIC. After 20 min in an ice bath, the lysates were centrifuged at 14,000 g and 4° C. for 20 min, and supernatants were collected. Conditioned media and lysates were stored at −20° C. until analysis. […]
Standard curves were established using varying amounts of purified and quantified cDNA amplicons of each mRNA. […]
Huh7 cells, hepatocyte derived cellular carcinoma cells, were incubated for 24 h in medium containing 10% lipoprotein-depleted serum (LPDS) and 0 to 10 μM Q3G. The level of LDLR mRNA was measured by quantitative real-time RT-PCR; that of the LDLR protein by semi-quantitative immunoblotting. […]

[2] = test system: PCSK9; assay: ELISA for PCSK9 secreted into medium by MIN6 β-cells; type: cell-based, mouse; conditions: MIN6, 24 h, different concentrations of Q3G
Description: FIG. 15 a graph illustrating the effect of exposure to Q3G on PCSK9 secretion in MIN6 β-cells. MIN6 cells were incubated for 24 h in the presence of the specified concentration of Q3G. Media were collected and assayed by ELISA for PCSK9 content.
Mouse insulinoma MIN6 cells were cultured in a 5% CO2-95% air atmosphere at 37° C. in DMEM medium containing 10% heat-inactivated fetal bovine serum, 1 mM Na-pyruvate, 2 mM L-glutamine, 25 mM D-glucose, and 28 μM β-mercaptoethanol. Q3G at a specific final concentration was supplemented to the culture medium and incubation was conducted for a selected length of time. Media were collected, spun at 600 g to sediment suspended cells, supplemented with 0.5 volumes of 3×RIPA-PIC (1×: 50 mM Tris-HCl, pH 8, 150 mM NaCl, 1% NP-40, 0.5% Na-deoxycholate and 0.1% SDS and PIC). Cells were lysed in 1×RIPA-PIC for immuno-blotting, or in RNA extraction buffer for qRT-PCR.
The assays for PCSK9 and insulin were conducted as prescribed by kit manufacturers, using a Thermo Scientific plate reader. For example, PCSK9 levels in conditioned media were measured using the human PCSK9 ELISA kit from Circulex, as specified the manufacturer. […] After 15 min, the reaction was stopped with […] and the absorbance of the reaction mixtures measured by spectrophotometry at 450 nm. […]

[3] = test system: SREBP-2; assay: Immunoblotting for SREBP-2-related proteins (proSREBP-2 proteolytic activation) in Huh7 cells; type: cell-based, human; conditions: Huh7, 24 h, 5 μM Q3G, normalized for β-actin
Description: FIGS. 9A and 9B are graphs illustrating the proSREBPs-2 mRNA and SREBP-2-related protein levels for cells exposed to Q3G. Cells were incubated for 24 h in medium 5 μM Q3G. FIG. 9A illustrates the results for quantitative RT-PCR for proSREBPs-2 mRNA levels. Values are the means of triplicate experiments±SEM. FIG. 9B illustrates the results for semi-quantitative immunoblotting for cellular SREBP-2-related protein. […]
At passage, Huh7 cells were routinely seeded at sub-confluence (˜10^6 cells/10-cm dish) in Dulbecco's modified Eagle's medium (DMEM) containing 10% fetal bovine serum (FBS) or LPDS (for experiments) and 50 μg/ml gentamycin. They were incubated overnight at 37° C., in a humidified 5% CO2-95% air atmosphere. Cells were treated or not with Q3G at defined concentrations and for defined lengths of time. Media were collected and centrifuged at 200 g for 5 min to sediment suspended cells; supernatants were collected and supplemented with 0.33 volumes of a 3×-concentrated PIC. […]
Cell lysates were fractionated by SDS-PAGE and electrophoretically transferred onto a polyvinylidene fluoride membrane. […] The signal was captured on X-ray film and immunoreactive bands analyzed by densitometry on a Syngene's ChemiGenius^2XE Bio Imaging System (Cambridge, Mass.) within the dynamic range of the instrument. […]

[4] = pigs, meal supplement; cited from earlier work

O=c1c(O[C@@H]2O[C@H](CO)[C@@H](O)[C@H](O)[C@H]2O)c(-c2ccc(O)c(O)c2)oc2cc(O)cc(O)c12 [Q3G, quercetin-3-O-β-D-glucoside]
increase of intracellular content of LDLR mRNA (maximum) [1]: 2 × | PCSK9 in the medium (secretion) [2]: paralleled that of the transcript; also recorded: stimulates | increase of ratio of 65-kDa nuclear SREBP-2 over its 148-kDa ER precursor [3]: up to 4 fold | quercetin bioavailability versus quercetin aglycone and rutin [4]: significantly greater
